The source of these data is patent publication US7005539B2, “Ferulic acid dimers and their pharmaceutically acceptable salts, their preparation and use thereof for treating dementia” (Korea Institute of Science and Technology, priority 2001, dated 2006).

Data set [1] has as its system mice administered with beta-amyloid. Kind of data set: passive avoidance test in mice given beta-amyloid into the cerebral ventricle. The following applies: group C (dimer and beta-amyloid) compared with group B (beta-amyloid (1–42) only); 24 h after training; maximum 300 seconds; FIG. 1. The data set is classed as in vivo, mouse. Here is the method: Four groups of 10 mice aged 4–5 weeks, weighing 20–25 g, were administered with samples dissolved in 1% DMSO and 1% CMC using Sonde once per 1 day(samples: A-reverse phase betaamyloid, B-betaamyloid, C-ferulic acid dimer of example 1 and betaamyloid, D-ferulic acid and betaamyloid). After injection of […] sample to the celebral ventricle on each of 3 consecutive days, passive avoidance test on days 1 and 2, and Y-maze test on days 3 and 4 following the last injection were conducted. All data attained by the average mean of 10 mice each group.
Injection into the cerebral ventricle was performed according to the method described in Laursen & Belknap, J. Pharmacol. Methods. 1986, 16, 355. […]
In order to examine the learning and memory-retention ability of a mouse, a passive avoidance test was carried out in accordance with the method described in Song et al., J. Neurochem., 1998, 71, 875. […] Twenty-four hours after the training, the mouse was put in the light room again and the time it took to enter the dark room was measured as a passive avoidance time. The maximum restriction time was set at 300 seconds, i. e., in cases where the mouse took more than 300 seconds to enter the dark room, the passive avoidance time was determined to be 300 seconds.

The subject of the next data set is Sprague-Dawley rats. The data set can be described thus: single-dose oral toxicity test in rats. The data set is classed as in vivo, rat. The conditions noted are these: for LD50: oral, one time, in corn oil, observed 7 days. On the procedure: Twenty female and twenty male Sprague-Dawley rats aged 4 weeks were divided into four groups including 5 female and 5 male rats, after being raised in a vivarium of temperature 22±3° C., relative humidity 50±10%, illumination 150–300 Lux for 1 week.
The ferulic acid dimers prepared in Example 1 was dissolved in corn oil, and the rats of 4 groups were orally administered with the solutions at a dose of 300, 1,000, 3,000 and 10,000 mg/kg one time. For 7 days after administration, changes of general symptoms and occurrence of death were observed. In addition, the rats were killed on day 7 after administration, dissected, and internal organs were examined with unaided eye. From the extract administration day, daily weight changes were measured and thus the weight decrease of animals attributed to ferulic acid dimers was observed.

A further data set concerns cynuclein. Kind of data set: T7 phage display selection of human brain cDNA library proteins on immobilized ferulic acid (chemical genomics). The data set is classed as binding. The following applies: screening repeated 3–4 times; identified by sequencing and BLAST. An excerpt:
(§1) In order to study a functional mechanism of ferulic acid dimers, the present inventors conducted an experiment to screen from protein libraries proteins conjugatable with ferulic acid by use the method of chemical genomics. To this end, ferulic acid was immobilized onto a solid substrate and treated with T7 phages having proteins translated from a human brain and cDNA library on their surface to select the proteins bound to the immobilized ferulic acid. For selection of the proteins with the best affinity for ferulic acid, the screening procedure was repeated 3–4 times. Base sequencing of the cDNA selected allowed the amino acid sequences of the corresponding proteins to be inferred. […] Of the proteins thus identified, cynuclein and plasophylin attracted particular attention. These two proteins, known to be directly or indirectly associated with formation of intercelluar or intracelluar plaque, were therefore found to be inhibited from forming plaques by ferulic acid.

The subject of a further data set is plasophylin. Described as above. The data set is classed as binding. The conditions noted are these: screening repeated 3–4 times; identified by sequencing and BLAST.
From the text: as §1

In another data set the test system is mouse. The conditions noted are these: separated ferulic acid monomer administered to mouse; cited from earlier work.

In the case of `O=C(O)C=Cc1ccc(O)c(OCCOc2cc(C=CC(=O)O)ccc2O)c1` [Example 1, 1,2-[2-hydroxy-5-(2-carboxyvinyl)]phenoxyethane], the step-through latency result in data set [1] is given as “significantly higher”. The LD50 in the data set with Sprague-Dawley rats (females) is 2,804 mg/kg; in the data set on Sprague-Dawley rats (males), 3,722 mg/kg. The body weight entry in the data set with Sprague-Dawley rats (groups administered with 1,000 mg/kg or less) is listed as “not decreased”. For the same compound, the “pathological changes seen with naked eye on dissection” value in the data set with Sprague-Dawley rats (surviving animals, groups administered 1,000 mg/kg or less, day 7) is reported as “No pathological changes”.
Turning to `COc1cc(/C=C/C(=O)O)ccc1O` [ferulic acid, 4-hydroxy-3-methoxy cinnamic acid], the “protein selected as bound to immobilized ferulic acid” value with cynuclein and in the data set with plasophylin was “specifically bound” each time. Moreover, the “memory-retention ability of mouse” value in the data set with mouse is recorded as “considerably increased”.
